Data: US20240228463A1, “SODIUM CHANNEL INHIBITORS AND METHODS OF DESIGNING SAME” (Genentech, Inc., priority 2021, published 2024)
Where a name gives a salt, the structure may show the parent alone.

target: T1, hNaV1.7 (Homo sapiens, UniProt Q15858); assay: Patch voltage clamp electrophysiology (EP), Syncropatch 384PE, Nav1.7 in CHO cells; format: cell-based; conditions: holding potential −50 mV, inhibition based on 7.5 min compound incubation, read-out: hNaV1.7 EP_SP;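 note: Nav1.7 stably expressed from cDNA in CHO cells, holding potential of −50 mV kept for the entire experiment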
T1 construct: expressed in transfected cells
T1 sequence (Q15858 1-1977 isoform Q15858-3): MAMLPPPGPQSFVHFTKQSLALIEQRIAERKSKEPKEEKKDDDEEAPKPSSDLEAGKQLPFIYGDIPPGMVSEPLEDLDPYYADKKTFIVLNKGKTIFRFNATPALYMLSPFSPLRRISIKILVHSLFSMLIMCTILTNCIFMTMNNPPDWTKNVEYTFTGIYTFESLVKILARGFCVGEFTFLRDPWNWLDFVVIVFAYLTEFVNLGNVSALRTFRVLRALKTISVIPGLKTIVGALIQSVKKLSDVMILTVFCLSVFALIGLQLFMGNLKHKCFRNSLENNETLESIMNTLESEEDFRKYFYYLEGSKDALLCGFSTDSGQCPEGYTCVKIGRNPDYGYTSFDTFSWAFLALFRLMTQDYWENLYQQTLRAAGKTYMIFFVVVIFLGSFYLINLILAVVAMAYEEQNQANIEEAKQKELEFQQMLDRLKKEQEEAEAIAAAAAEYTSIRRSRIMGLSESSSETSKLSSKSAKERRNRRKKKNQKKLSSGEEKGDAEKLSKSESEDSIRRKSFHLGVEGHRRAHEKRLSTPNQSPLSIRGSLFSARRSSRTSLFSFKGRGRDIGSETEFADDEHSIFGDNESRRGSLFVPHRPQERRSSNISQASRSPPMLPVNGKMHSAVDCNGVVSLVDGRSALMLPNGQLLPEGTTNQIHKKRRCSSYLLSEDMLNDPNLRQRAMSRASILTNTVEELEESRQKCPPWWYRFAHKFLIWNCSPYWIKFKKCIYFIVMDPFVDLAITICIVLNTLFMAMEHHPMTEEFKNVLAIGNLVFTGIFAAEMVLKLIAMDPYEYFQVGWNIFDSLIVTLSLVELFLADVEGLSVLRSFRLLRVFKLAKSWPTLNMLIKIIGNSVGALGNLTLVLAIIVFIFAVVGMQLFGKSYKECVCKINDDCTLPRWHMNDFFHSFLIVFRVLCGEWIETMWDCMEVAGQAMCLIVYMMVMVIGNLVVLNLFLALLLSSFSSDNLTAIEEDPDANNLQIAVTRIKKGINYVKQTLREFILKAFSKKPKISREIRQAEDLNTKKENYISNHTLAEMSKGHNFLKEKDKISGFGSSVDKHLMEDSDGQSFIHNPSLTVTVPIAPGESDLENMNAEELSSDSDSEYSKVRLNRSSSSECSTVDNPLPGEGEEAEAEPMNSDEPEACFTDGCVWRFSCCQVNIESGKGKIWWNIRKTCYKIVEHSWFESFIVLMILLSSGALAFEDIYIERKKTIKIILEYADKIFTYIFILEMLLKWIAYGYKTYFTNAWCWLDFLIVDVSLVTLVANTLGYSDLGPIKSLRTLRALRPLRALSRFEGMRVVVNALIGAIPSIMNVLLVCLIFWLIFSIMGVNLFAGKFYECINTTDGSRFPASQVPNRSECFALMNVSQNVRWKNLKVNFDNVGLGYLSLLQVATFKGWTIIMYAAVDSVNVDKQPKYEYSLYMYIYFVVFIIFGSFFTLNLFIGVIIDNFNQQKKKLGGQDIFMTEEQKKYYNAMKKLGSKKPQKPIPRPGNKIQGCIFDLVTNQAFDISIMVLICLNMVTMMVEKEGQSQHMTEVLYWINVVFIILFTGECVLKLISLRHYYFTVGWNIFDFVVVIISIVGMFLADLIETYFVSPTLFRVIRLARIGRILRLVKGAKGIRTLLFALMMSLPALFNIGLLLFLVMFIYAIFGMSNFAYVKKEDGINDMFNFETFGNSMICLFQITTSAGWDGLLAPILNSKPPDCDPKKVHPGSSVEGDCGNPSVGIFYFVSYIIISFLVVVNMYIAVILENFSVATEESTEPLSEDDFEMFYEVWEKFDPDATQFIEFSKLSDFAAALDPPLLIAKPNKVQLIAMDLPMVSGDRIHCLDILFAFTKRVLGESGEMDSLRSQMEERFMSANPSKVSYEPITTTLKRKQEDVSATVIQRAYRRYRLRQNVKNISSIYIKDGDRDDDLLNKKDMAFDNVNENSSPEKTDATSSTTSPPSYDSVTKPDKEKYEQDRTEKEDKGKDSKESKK

Row | Compound | IC50
1 | CN(C)C1(C)CCCN(c2cc(F)c(S(=O)(=O)NC(=O)c3cc(Cl)c(OCC4CCCC4)cc3F)c(F)c2)C1 (stereo not drawn) [Example 76, 5-chloro-4-(cyclopentylmethoxy)-N-((4-(3-(dimethylamino)-3-methylpiperidin-1-yl)-2,6-difluorophenyl)sulfonyl)-2-fluorobenzamide] | 32 nM
2 | O=C(NS(=O)(=O)c1ccccc1)c1cc(Cl)c(OCC2CCCC2)cc1F [Example 78, 5-chloro-4-(cyclopentylmethoxy)-2-fluoro-N-(phenylsulfonyl)benzamide] | 100 nM
3 | O=C(NS(=O)(=O)c1c(F)cccc1F)c1cc(Cl)c(OCC2CCCC2)cc1F [Example 79, 5-chloro-4-(cyclopentylmethoxy)-N-((2,6-difluorophenyl)sulfonyl)-2-fluorobenzamide] | 100 nM
4 | O=C(NS(=O)(=O)c1cc(Cl)ccc1F)c1cc(Cl)c(OCC2CCCC2)cc1F [Example 80, 5-chloro-N-((5-chloro-2-fluorophenyl)sulfonyl)-4-(cyclopentylmethoxy)-2-fluorobenzamide] | 700 nM
5 | COc1ccc(S(=O)(=O)NC(=O)c2cc(Cl)c(OCC3CCCC3)cc2F)cc1 [Example 81, 5-chloro-4-(cyclopentylmethoxy)-2-fluoro-N-((4-methoxyphenyl)sulfonyl)-benzamide] | 140 nM
6 | O=C(NS(=O)(=O)C1CCCCC1)c1cc(Cl)c(OCC2CCCC2)cc1F [Example 82, 5-chloro-N-(cyclohexylsulfonyl)-4-(cyclopentylmethoxy)-2-fluorobenzamide] | 30 nM
7 | O=C(NS(=O)(=O)c1ccc(OCc2ccccc2)cc1)c1cc(C2CC2)c(OCC2CCCC2)cc1F [Example 83, N-((4-(benzyloxy)phenyl)sulfonyl)-4-(cyclopentylmethoxy)-5-cyclopropyl-2-fluorobenzamide] | 92 nM
8 | O=C(NS(=O)(=O)c1ccc(NCc2ccccc2)cc1)c1cc(Cl)c(OCC2CCCC2)cc1F [Example 84, N-((4-(benzylamino)phenyl)sulfonyl)-5-chloro-4-(cyclopentylmethoxy)-2-fluorobenzamide] | 690 nM
9 | O=C(NS(=O)(=O)c1ccc(OCc2ccncc2)cc1)c1cc(Cl)c(OCC2CCCC2)cc1F [Example 85, 5-chloro-4-(cyclopentylmethoxy)-2-fluoro-N-((4-(pyridin-4-ylmethoxy)-phenyl)sulfonyl)benzamide] | 16 nM
10 | CO[C@H]1CC[C@H](S(=O)(=O)NC(=O)c2cc(Cl)c(OCC3CCCC3)cc2F)CC1 [Example 86, trans-5-chloro-4-(cyclopentylmethoxy)-2-fluoro-N-((4-methoxycyclohexyl)sulfonyl)benzamide] | 100 nM
11 | CO[C@H]1CC[C@@H](S(=O)(=O)NC(=O)c2cc(Cl)c(OCC3CCCC3)cc2F)CC1 [Example 87, cis-5-chloro-4-(cyclopentylmethoxy)-2-fluoro-N-((4-methoxycyclohexyl)sulfonyl)benzamide] | 390 nM
12 | CN(C)[C@H]1CCCC[C@@H]1Oc1ccc(S(=O)(=O)Nc2noc3cc(OCC4CCCC4)c(C4CC4)cc23)c(F)c1 [Example 89, N-(6-(cyclopentylmethoxy)-5-cyclopropylbenzo[d]isoxazol-3-yl)-4-(((1S,2S)-2-(dimethylamino)cyclohexyl)oxy)-2-fluorobenzenesulfonamide] | 340 nM
13 | CN(C)[C@H]1CCCC[C@@H]1Nc1ccc(S(=O)(=O)Nc2nc3ncc(Br)cc3s2)c(F)c1 [Example 95, N-(6-bromothiazolo[4,5-b]pyridin-2-yl)-4-(((1S,2S)-2-(dimethylamino)-cyclohexyl)amino)-2-fluorobenzenesulfonamide] | 170 nM
14 | CN(C)[C@H]1CCCC[C@@H]1Nc1ccc(S(=O)(=O)Nc2nc3ccc(OCC4CCCC4)cc3s2)c(F)c1 [Example 96, N-(6-(cyclopentylmethoxy)benzo[d]thiazol-2-yl)-4-(((1S,2S)-2-(dimethyl-amino)cyclohexyl)-amino)-2-fluorobenzenesulfonamide formate] | 8.8 nM
15 | CN(C)[C@H]1CCCC[C@@H]1Oc1ccc(S(=O)(=O)Nc2nc3ccc(OCC4CCCC4)cc3s2)c(F)c1 [Example 97, N-(6-(cyclopentylmethoxy)benzo[d]thiazol-2-yl)-4-(((1S,2S)-2-(dimethyl-amino)cyclohexyl)oxy)-2-fluorobenzenesulfonamide] | 20 nM
16 | CN(C)[C@H]1CCCC[C@@H]1Oc1ccc(S(=O)(=O)Nc2nc3cccc(Cl)c3s2)c(F)c1 [Example 99, N-(7-chlorobenzo[d]thiazol-2-yl)-4-(((1S,2S)-2-(dimethylamino)cyclohexyl)-oxy)-2-fluorobenzenesulfonamide] | 430 nM
17 | CN(C)[C@H]1CCCC[C@@H]1Nc1cc(F)c(S(=O)(=O)Nc2ccc(OCCC3(C(F)(F)F)CC3)cn2)cc1Cl [Example 101, 5-chloro-4-(((1S,2S)-2-(dimethylamino)cyclohexyl)amino)-2-fluoro-N-(5-(2-(1-(trifluoromethyl)cyclopropyl)ethoxy)pyridin-2-yl)benzenesulfonamide] | 480 nM
18 | CC(C)/C=C/c1cc2cnc(NS(=O)(=O)c3cc(Cl)c(N[C@H]4CCCC[C@@H]4N(C)C)cc3F)cc2n1C [Example 102, 5-chloro-4-(((1S,2S)-2-(dimethylamino)cyclohexyl)amino)-2-fluoro-N-(1-methyl-2-((E)-3-methylbut-1-en-1-yl)-1H-pyrrolo[3,2-c]pyridin-6-yl)benzenesulfonamide] | 650 nM
19 | CN(C)[C@H]1CCCC[C@@H]1Nc1cc(F)c(S(=O)(=O)Nc2ccc(OCCCc3ccc(C(F)(F)F)cc3)cn2)cc1Cl [Example 103, 5-chloro-4-(((1S,2S)-2-(dimethylamino)cyclohexyl)amino)-2-fluoro-N-(5-(3-(4-(trifluoromethyl)phenyl)propoxy)pyridin-2-yl) benzenesulfonamide] | 220 nM
20 | O=C(N[C@@H](C(=O)O)C1CCCCC1)c1cc(Cl)c(OCC2CCCC2)cc1F [Example 107, (R)-2-(5-chloro-4-(cyclopentylmethoxy)-2-fluorobenzamido)-2-cyclohexyl-acetic acid] | 990 nM
21 | COc1ccc2nc(NS(=O)(=O)c3ccc(N[C@H]4CCCC[C@@H]4N(C)C)cc3F)sc2c1 [Example 201, 4-(((1S,2S)-2-(dimethylamino)cyclohexyl)amino)-2-fluoro-N-(6-methoxybenzo[d]thiazol-2-yl)benzenesulfonamide] | 370 nM
22 | CN(C)[C@H]1CCCC[C@@H]1Nc1cc(F)c(S(=O)(=O)Nc2nc3ccc(OCC4CCCC4)cc3s2)cc1Cl [Example 202, 5-chloro-N-(6-(cyclopentylmethoxy)benzo[d]thiazol-2-yl)-4-(((1S,2S)-2-(dimethylamino)cyclohexyl)amino)-2-fluorobenzenesulfonamide] | 22 nM
23 | CN(C)[C@H]1CCCC[C@@H]1Nc1cc(F)c(S(=O)(=O)NC(=O)c2cc(C3CC3)c(OCC3CCCC3)cc2F)c(F)c1 [Example 204, 4-(cyclopentylmethoxy)-5-cyclopropyl-N-((4-(((1S,2S)-2-(dimethylamino)cyclohexyl)amino)-2,6-difluorophenyl)sulfonyl)-2-fluorobenzamide] | 10 nM
24 | CN(C)C1CCCN(c2ccc(S(=O)(=O)NC(=O)c3cc(Cl)c(OCC4CCCC4)cc3F)c(F)c2)C1 (stereo not drawn) [Example 205, 5-chloro-4-(cyclopentylmethoxy)-N-((4-(3-(dimethylamino)piperidin-1-yl)-2-fluorophenyl)sulfonyl)-2-fluorobenzamide] | 39 nM
